Test results: patent US5726195A, “Aminoacyl adenylate mimics as novel antimicrobial and antiparasitic agents” (Cubist Pharmaceuticals, Inc., priority 1996, dated 1998)
Converted amounts (≈) assume the structure as drawn.

Experiments:
S. aureus ATCC 14154 = assay: Whole cell antimicrobial screen, MIC; assay type: cell-based; details: Staphylococcus aureus, ATCC14154
Experimental: (§1) Compounds were tested for antimicrobial activity against a panel of organisms according to standard procedures described by the National Committee for Clinical Laboratory Standards (NCCLS document M7-A3, Vol. 13, No. 25, 1993/NCCLS document M27-P, Vol. 12, No. 25, 1992). Compounds were dissolved in 100% dimethyl sulfoxide and were diluted to the final reaction concentration (0.1 μg/mL-500 μg/mL) in microbial growth media. In al cases the final concentration of dimethyl sulfoxide incubated with cells is less than or equal to 1%. For minimum inhibitory concentration (MIC) calculations, 2-fold dilutions of compounds were added to wells of a microtiter plate containing 5×10^4 bacteria or fungal cells in a final volume of 100 lambda of an appropriate media (Mueller-Hinton Broth; Haemophilus Test Media; Mueller-Hinton Broth+5% Sheep Blood; or […]). Plates were incubated overnight at an appropriate temperature (30° C.-37° C.) and optical densities (measure of cell growth) were measured using a commercial plate reader. The MIC value is defined as the lowest compound concentration inhibiting growth of the test organism.

E. faecalis ATCC 33011 = assay: Whole cell antimicrobial screen, MIC; assay type: cell-based; details: Enterococcus faecalis, ATCC33011
Experimental: as §1

H. influenza ATCC 49247 = assay: Whole cell antimicrobial screen, MIC; assay type: cell-based
Experimental: as §1

C. albicans ATCC 10231 = assay: Whole cell antimicrobial screen, MIC; assay type: cell-based; details: Candida albicans, ATCC10231
Experimental: as §1

S. aureus ATCC 6538P = assay: Whole cell antimicrobial screen, MIC; assay type: cell-based; details: Staphylococcus aureus, ATCC6538P
Experimental: as §1

[1] = test system: S. saprophyticus ATCC 35552; assay: Whole cell antimicrobial screen, MIC; assay type: cell-based; details: Staphylococcus saprophyticus, ATCC35552
Experimental: as §1

E. faecium ATCC 6569 = assay: Whole cell antimicrobial screen, MIC; assay type: cell-based; details: Enterococcus faecium, ATCC6569
Experimental: as §1

S. pyogenes ATCC 8668 = assay: Whole cell antimicrobial screen, MIC; assay type: cell-based; details: Streptococcus pyogenes, ATCC8668
Experimental: as §1

[2] = test system: S. epidermidis ATCC 33501; assay: Whole cell antimicrobial screen, MIC; assay type: cell-based; details: Staphylococcus epidermidis, ATCC33501
Experimental: as §1

S. pneumonia ATCC 49619 = assay: Whole cell antimicrobial screen, MIC; assay type: cell-based
Experimental: as §1

[3] = target: E. Coli. IleRS (isoleucyl-tRNA synthetase) (Escherichia coli, UniProt P00956); assay: Inhibition of isoleucyl-tRNA synthetase (aminoacylation of tRNA with [3H]isoleucine); assay type: biochemical; details: E. coli enzyme; irreversible inhibitors: values are 50% of the active enzyme concentration; read-out: IC50 E.Coli. IleRS
Experimental: The extent of aminoacylation of tRNA with isoleucine catalyzed by isoleucyl-tRNA synthetase enzyme was measured by monitoring the incorporation of [3H] isoleucine into trichloroacetic acid-precipitable tRNA in the presence of a compound of Formula I, as compared with activity in the absence of inhibitor. The isoleucyl-tRNA synthetase enzymes are well known in the prior art and can be obtained and purified by known methods (for example see: D. Kern et at., Biochimie, 61, 1257-1272 (1979) and J. Gilbart et al., Antimicrobial Agents and Chemotherapy, 37 (1), 32-38 (1993)).
Isoleucyl-tRNA synthetase enzyme (0.08-2.0 nM, preferably, 0.4 nM) was first pre-incubated at 25° C. with 0.05 mg/ml bovine serum albumin, 10 mM DTT, 2.5% dimethyl sulfoxide, with or without a compound of Formula I, for 20 minutes. At this point a substrate solution (a solution containing the following: ATP, [^3 H]isoleucine, tRNA, HEPES, magnesium chloride, and potassium chloride) was added to give a final concentration of 0.0286 mg/ml bovine serum albumin, 5.7 mM DTT, 4 mM ATP, 5-20 μM [^3 H] isoleucine (1-15 Ci/mmol), 90 μM crude tRNA or 2 μM isoleucine specific tRNA, 1.4% dimethyl sulfoxide, 30 mM HEPES (pH 7.5), 10 mM magnesium chloride, and 50 mM potassium chloride and incubated at 25° C. Aliquots were removed at selected times (e.g. 5, 10, 20 minutes) and applied to 3MM filter paper discs (Whatman) and then dropped into 5% (wt/vol) trichloroacetic acid for >5 minutes. Filters were washed for three 10-minute periods in 5% trichloroacetic acid, rinsed in 95% ethanol and diethyl ether, and radioactivity was measured with Betafluor™ (National Diagnostics) by liquid scintillation counting.
Inhibitor activity is reported in Table II as an IC50 value (inhibitor concentration causing 50% inhibition of enzyme activity) per a known amount of active enzyme. In the case of irreversible inhibitors (1:1 stoichiometry) these values are 50% of the active enzyme concentration. The IC50 (in nM, E. coli) values of representative compounds of the present invention are listed in the second column of Table II.

B. subtilis ATCC 6633 = assay: Whole cell antimicrobial screen, MIC; assay type: cell-based; details: Bacillus subtilis, ATCC6633
Experimental: as §1

K. pneumonia ATCC 4352 = assay: Whole cell antimicrobial screen, MIC; assay type: cell-based; details: Klebsiella pneumoniae, ATCC4352
Experimental: as §1

[4] = test system: M. catarrhalis ATCC 25240; assay: Whole cell antimicrobial screen, MIC; assay type: cell-based; details: Moraxella catarrhalis, ATCC25240
Experimental: as §1

[5] = test system: isoleucyl-tRNA synthetase; details: Gram positive bacterial pathogens such as Staphylococcus aureus; cited from earlier work

E. Coli. IleRS (isoleucyl-tRNA synthetase), sequence (P00956 whole entry): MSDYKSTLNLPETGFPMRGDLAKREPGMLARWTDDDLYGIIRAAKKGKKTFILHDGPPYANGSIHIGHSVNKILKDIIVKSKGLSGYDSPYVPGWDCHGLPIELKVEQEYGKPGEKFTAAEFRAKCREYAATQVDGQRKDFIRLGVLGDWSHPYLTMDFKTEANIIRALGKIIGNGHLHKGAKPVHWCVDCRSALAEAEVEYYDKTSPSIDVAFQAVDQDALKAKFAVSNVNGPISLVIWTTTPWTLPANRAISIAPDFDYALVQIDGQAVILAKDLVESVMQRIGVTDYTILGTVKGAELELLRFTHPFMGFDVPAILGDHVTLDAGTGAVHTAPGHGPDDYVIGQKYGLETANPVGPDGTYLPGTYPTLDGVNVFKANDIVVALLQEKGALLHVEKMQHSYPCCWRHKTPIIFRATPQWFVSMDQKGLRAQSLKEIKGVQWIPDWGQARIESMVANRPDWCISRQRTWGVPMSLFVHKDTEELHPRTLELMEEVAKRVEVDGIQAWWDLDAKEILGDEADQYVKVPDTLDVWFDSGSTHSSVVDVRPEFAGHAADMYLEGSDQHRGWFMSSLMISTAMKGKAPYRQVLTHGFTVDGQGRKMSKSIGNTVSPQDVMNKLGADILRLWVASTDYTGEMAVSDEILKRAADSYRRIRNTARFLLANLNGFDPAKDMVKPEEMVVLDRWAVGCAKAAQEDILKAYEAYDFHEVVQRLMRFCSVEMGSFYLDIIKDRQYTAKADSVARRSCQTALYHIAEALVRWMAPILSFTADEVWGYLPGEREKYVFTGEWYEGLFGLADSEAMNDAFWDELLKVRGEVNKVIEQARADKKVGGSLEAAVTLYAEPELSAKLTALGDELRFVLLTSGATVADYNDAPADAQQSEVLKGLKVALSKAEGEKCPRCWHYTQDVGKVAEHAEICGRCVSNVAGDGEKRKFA

Structure (SMILES)	MIC (S. aureus ATCC 14154) [µg/mL]	MIC (E. faecalis ATCC 33011) [µg/mL]	MIC (H. influenza ATCC 49247) [µg/mL]	MIC (C. albicans ATCC 10231) [µg/mL]	MIC (S. aureus ATCC 6538P) [µg/mL]	MIC [1] [µg/mL]	MIC (E. faecium ATCC 6569) [µg/mL]	MIC (S. pyogenes ATCC 8668) [µg/mL]	MIC [2] [µg/mL]	MIC (S. pneumonia ATCC 49619) [µg/mL]	IC50 [3] [nM]	MIC (B. subtilis ATCC 6633) [µg/mL]	MIC (K. pneumonia ATCC 4352) [µg/mL]	MIC [4] [µg/mL]	inhibition of isoleucyl adenylate formation [5]
CC[C@H](C)[C@H](N)C(=O)NS(=O)(=O)OC[C@H]1O[C@@H](CCn2nnc(-c3ccc(Oc4ccc(C(=O)OCc5ccccc5)cc4)cc3)n2)[C@H](O)[C@@H]1O [XI]	25 (≈ 34.5 µM)	> 500	25 (≈ 34.5 µM)	> 500	10 (≈ 13.8 µM)	10 (≈ 13.8 µM)	25 (≈ 34.5 µM)	5 (≈ 6.9 µM)	5 (≈ 6.9 µM)	50 (≈ 69 µM)	109				
CC[C@H](C)[C@H](N)C(=O)NS(=O)(=O)OC[C@H]1O[C@@H](CCn2nnc(-c3ccc(-c4ccccc4)c(C)c3)n2)[C@H](O)[C@@H]1O [XX]	50 (≈ 84.9 µM)	500 (≈ 849 µM)	> 500	> 500	50 (≈ 84.9 µM)	25 (≈ 42.5 µM)	100 (≈ 170 µM)		25 (≈ 42.5 µM)		0.6	50 (≈ 84.9 µM)	50 (≈ 84.9 µM)	25 (≈ 42.5 µM)	
CC[C@H](C)[C@H](N)C(=O)NS(=O)(=O)OC[C@H]1O[C@@H](CCn2nnc(-c3ccc(C#Cc4ccc([N+](=O)[O-])o4)cc3)n2)[C@H](O)[C@@H]1O [II, [S-(R*,R*)]-3,6-anhydro-1,2-dideoxy-1-[5-[4-[(5-nitro-2-furyl)ethynyl]phenyl]-2H-tetrazol-2-yl]-D-allo-heptitol 7-(2-amino-3-methyl-1-oxopentyl)sulfamate]	8 (≈ 12.6 µM)	256 (≈ 404 µM)		100 (≈ 158 µM)	4 (≈ 6.31 µM)	8 (≈ 12.6 µM)	64 (≈ 101 µM)	16 (≈ 25.3 µM)	1 (≈ 1.58 µM)	16 (≈ 25.3 µM)	1				
CC[C@H](C)[C@H](N)C(=O)NS(=O)(=O)OC[C@H]1O[C@@H](CCn2nnc(N3CCN(c4ccccc4)CC3)n2)[C@H](O)[C@@H]1O [XXIV]	> 400	> 400		500 (≈ 858 µM)	400 (≈ 686 µM)	400 (≈ 686 µM)	400 (≈ 686 µM)		50 (≈ 85.8 µM)		1.3	400 (≈ 686 µM)	400 (≈ 686 µM)	400 (≈ 686 µM)	
CC(=CC(=O)OCCCCCCCCC(=O)O)CC1OCC(CC2OC2C(C)C(C)O)C(O)C1O (stereo not drawn) [Pseudomonic acid A]															inhibits isoleucyl adenylate formation
CC[C@H](C)[C@H](N)C(=O)NS(=O)(=O)OC[C@H]1O[C@@H](CCn2nnc(-c3ccc(-c4ccccc4C)c(C)c3)n2)[C@H](O)[C@@H]1O [XXII]	25 (≈ 41.5 µM)	200 (≈ 332 µM)		> 500	25 (≈ 41.5 µM)	10 (≈ 16.6 µM)	100 (≈ 166 µM)	10 (≈ 16.6 µM)	5 (≈ 8.3 µM)	25 (≈ 41.5 µM)	11	25 (≈ 41.5 µM)	100 (≈ 166 µM)	50 (≈ 83 µM)	
CC[C@H](C)[C@H](N)C(=O)NS(=O)(=O)OC[C@H]1O[C@@H](CCn2nnc(-c3ccc(C#Cc4ccccc4)cc3)n2)[C@H](O)[C@@H]1O [IV]	100 (≈ 167 µM)	> 500		> 200	10 (≈ 16.7 µM)	10 (≈ 16.7 µM)	> 500		2 (≈ 3.34 µM)		4.5	25 (≈ 41.8 µM)	50 (≈ 83.5 µM)	5 (≈ 8.35 µM)	
